Results reported in patent publication US10544156B2, “Hemi-synthetic trilobine analogs for use as a drug” (PIERRE FABRE MEDICAMENT, priority 2015, dated 2020).
Read-outs that look alike come from different tables or passages of the source.

What was measured:
KG-1 (leukemia) = experiment: Anti-proliferative activity (ATPLite); assay type: cell-based; conditions: Homo sapiens; daily treatment, cell viability by ATPLite; read-out: Antiproliferative activity: IC50 (μM) KG-1 (leukemia)
Procedure: (§1) To measure the anti-proliferative properties of tested molecules, 2×10^4 cells are seeded at day 0 in a 96 wells plate. The compounds to be tested, stored at −20° C. as 10^−2 M stock solution in 100% DMSO, are freshly diluted on day 1 in the cell medium, before adding a dose range of 3.2 nM to 10 μM to the cells. Cells are treated everyday and cell viability assessed after 3 days or 7 days of treatment. The cell viability is assessed using the ATPLite kit from Perkin (ATPlite 1 Step Luminescence Assay System, ref 3016739), following the provider instructions. The raw data are analyzed with GraphPad Prism software (v4.03) to generate IC50 values corresponding to the compound concentrations giving 50% reduction in cell viability. The values presented are the mean results of at least two independent experiments. The standard errors are indicated.

[1] = test system: HCT116 (colorectal cancer); experiment: Anti-proliferative activity (ATPLite); assay type: cell-based; conditions: Homo sapiens, HCT-116; daily treatment, cell viability by ATPLite; read-out: Antiproliferative activity: IC50 (μM) HCT116 (colorectal cancer)
Procedure: as §1

[2] = target: T1, His-DNMT1 (182 kDa, human) (Homo sapiens, UniProt P26358); experiment: hDNMT1 assay ([methyl-3H] SAM Flashplate); assay type: biochemical; conditions: for EC50: read-out: EC50 (μM), hDNMT 1 inhibition; for inhibition at 10 µM: read-out: hDNMT 1 inhibition, Inhibition (%) 10 μM; for inhibition at 32 µM: read-out: hDNMT 1 inhibition, Inhibition (%) 32 μM
T1 construct: His; made in house
T1 sequence (P26358 whole entry): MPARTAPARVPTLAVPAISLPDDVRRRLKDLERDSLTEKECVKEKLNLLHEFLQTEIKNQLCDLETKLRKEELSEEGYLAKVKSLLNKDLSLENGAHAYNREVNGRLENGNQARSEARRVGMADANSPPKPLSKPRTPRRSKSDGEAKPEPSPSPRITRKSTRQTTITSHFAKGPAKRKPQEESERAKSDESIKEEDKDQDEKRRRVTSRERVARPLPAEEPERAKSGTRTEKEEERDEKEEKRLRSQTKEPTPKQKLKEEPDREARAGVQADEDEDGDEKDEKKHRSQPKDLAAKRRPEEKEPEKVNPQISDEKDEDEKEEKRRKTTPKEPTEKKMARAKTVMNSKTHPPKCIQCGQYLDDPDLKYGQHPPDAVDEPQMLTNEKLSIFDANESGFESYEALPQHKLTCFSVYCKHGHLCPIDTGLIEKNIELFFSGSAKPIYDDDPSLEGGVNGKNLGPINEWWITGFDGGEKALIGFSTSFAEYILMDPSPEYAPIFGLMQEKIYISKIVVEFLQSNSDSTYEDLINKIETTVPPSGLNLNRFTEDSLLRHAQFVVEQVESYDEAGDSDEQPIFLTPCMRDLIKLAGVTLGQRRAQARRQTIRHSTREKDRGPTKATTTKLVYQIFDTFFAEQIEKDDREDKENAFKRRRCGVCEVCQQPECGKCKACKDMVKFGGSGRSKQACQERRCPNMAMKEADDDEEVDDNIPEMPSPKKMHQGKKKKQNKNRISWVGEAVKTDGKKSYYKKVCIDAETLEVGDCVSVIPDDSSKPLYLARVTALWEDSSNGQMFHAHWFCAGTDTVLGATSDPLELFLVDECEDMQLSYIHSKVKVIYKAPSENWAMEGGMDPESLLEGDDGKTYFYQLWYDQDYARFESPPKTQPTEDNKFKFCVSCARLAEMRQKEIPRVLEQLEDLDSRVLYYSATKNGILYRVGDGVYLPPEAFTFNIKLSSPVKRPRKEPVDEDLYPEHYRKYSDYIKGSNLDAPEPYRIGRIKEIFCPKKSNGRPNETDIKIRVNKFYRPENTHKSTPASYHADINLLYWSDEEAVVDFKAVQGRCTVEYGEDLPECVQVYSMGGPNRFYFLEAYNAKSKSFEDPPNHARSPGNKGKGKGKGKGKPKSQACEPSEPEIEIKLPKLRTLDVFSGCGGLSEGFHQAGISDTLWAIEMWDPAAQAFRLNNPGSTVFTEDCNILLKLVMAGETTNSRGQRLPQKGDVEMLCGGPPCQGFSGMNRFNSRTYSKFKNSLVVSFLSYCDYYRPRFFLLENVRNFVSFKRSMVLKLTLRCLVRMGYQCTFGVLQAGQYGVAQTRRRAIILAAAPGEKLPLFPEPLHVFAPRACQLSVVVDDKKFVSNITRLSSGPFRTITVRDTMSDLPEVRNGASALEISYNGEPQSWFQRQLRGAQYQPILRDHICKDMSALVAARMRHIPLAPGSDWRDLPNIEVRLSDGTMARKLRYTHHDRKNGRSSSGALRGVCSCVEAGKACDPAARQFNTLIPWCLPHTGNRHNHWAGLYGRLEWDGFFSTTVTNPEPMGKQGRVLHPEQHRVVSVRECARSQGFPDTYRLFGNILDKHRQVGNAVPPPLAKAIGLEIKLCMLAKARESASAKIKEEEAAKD
Procedure: His-DNMT1 (182 kDa, human) was cloned, expressed and purified as described (Halby et al. Chem Bio Chem 2012, 13, 157-165). The reaction was performed in a 10 μL total reaction volume in low volume NBS™ 384-well microplates (Corning), containing the tested compound (up to 1% DMSO), 1 μM of a SAM/[methyl-^3H] SAM (3TBq/mmol, PerkinElmer) mix in a ratio of 3-to-1 (isotopic dilution 1*:3), 0.3 μM of biotinylated hemimethylated DNA duplex (5′-GATmCGCmCGATGmCGmCGAATmCGmCGATmCGATGmCGAT-3′ and BIOT-5′-[…]-3′), and 90 nM of DNMT1 in methylation buffer (20 mM HEPES pH 7.2, 1 mM EDTA, 50 mM KCl, 25 μg/mL BSA). The reaction was incubated at 37° C. for 2 hours. 8 μL are then transferred into a streptavidin 96-well scintillant coated Flashplate™ (PerkinElmer) containing 190 μL of 20 μM SAH in 50 mM Tris-HCl pH 7.4. The Flashplate™ was agitated at room temperature for 1 hour and read in 200 μL of 50 mM Tris-HCl pH 7.4 on TopCount NXT (PerkinElmer). The percentage of inhibition is reported. The formula used to calculate the percentage of inhibition is [(X−Y)/X]×100, where X is the signal determined in the absence of the inhibitor and Y is the signal obtained in the presence of the inhibitor.

[3] = test system: luciferase reporter gene under control of methylated CMV promoter in KG-1 cells; experiment: CMV-luc reexpression in KG-1 cells; assay type: cell-based, human; conditions: for Induction Fold (IF) of luciferase gene reporter in KG-1 CMV-Luc: 24 h, vs DMSO; for IF-24 h, KG1 CMV-Luc model: at 5 μM, 24 h (Table 5)
Procedure: KG-1 cells were stably transfected with the firefly luciferase reporter gene (luc+ from pGL3; Promega) under the control of the cytomegalovirus (CMV) promoter (from pEGFP-N1; Clontech Laboratories Inc.) partially methylated (50%). 20,000 cells per well were seeded in a 96-well plate. After 24 h incubation in the presence of the test compound or solvant (DMSO), the induction of the promoter was measured by quantification of the luciferase signal with the Brite-lite assay system (PerkinElmer) according to the manufacturer's protocol. The luminescence was measured on an EnVision multilabel plate reader (PerkinElmer), and the data are expressed as the fold induction as compared with the DMSO control. The mean of three experiments and the standard error is reported.

[4] = target: T2, human C-terminal DNMT3A (623-908a.a.) (Homo sapiens, UniProt Q9Y6K1); experiment: hDNMT3A assay (restriction-based fluorescence assay); assay type: biochemical; conditions: for inhibition at 10 µM: read-out: hDNMT 3A inhibition, Inhibition (%) 10 μM; for inhibition at 32 µM: read-out: hDNMT 3A inhibition, Inhibition (%) 32 μM
T2 construct: The human C-terminal DNMT3A (623-908a.a.); made in house
T2 sequence (Q9Y6K1 627-912 limits assumed): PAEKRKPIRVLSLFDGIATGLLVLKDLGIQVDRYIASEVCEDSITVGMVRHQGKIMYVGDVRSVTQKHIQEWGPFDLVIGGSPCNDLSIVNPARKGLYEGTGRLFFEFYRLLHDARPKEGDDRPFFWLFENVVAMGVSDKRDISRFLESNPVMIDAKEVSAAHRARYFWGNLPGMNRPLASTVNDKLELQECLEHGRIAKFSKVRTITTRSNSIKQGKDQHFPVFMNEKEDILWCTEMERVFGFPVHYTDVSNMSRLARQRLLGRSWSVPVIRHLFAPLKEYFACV
From the text: hDNMT3A enzyme inhibition was adapted from the restriction-based fluorescence assay protocol as described in the literature (Ceccaldi et al. Chem Bio Chem 2011, 12, 1337-1345). Briefly, a 5′-labelled biotin oligonucleotide is hybridized to its complementary strand labelled with 6-carboxyfluorescein at the 3′-end into a 384 well microplate (black Optiplates; Perkin Elmer) pre-coated with avidin. The duplex contains a unique CpG site overlapping with a restriction site of a methylation sensitive restriction enzyme. The human C-terminal DNMT3A (623-908a.a.), produced as described in (Gros et al. Nucl. Acids Res. 2013, 41(19):e185), was added in each well (200 ng/well) and mixed with the chemical compounds at desired concentrations and freshly prepared SAM (20 μM final concentration) to start the reaction in a total volume of 50 μL. After 1 hour incubation at 37° C. each well were washed three times with PBS, Tween-20 0.05%, NaCl (500 mM) and three more times with PBST. Specific fluorescent signals were detected with the methylation-sensitive restriction enzyme HpyCH4IV (NEB) as described and measured on a Perkin Elmer Envision detector. The percentage of inhibition is reported. The formula used to calculate the percentage of inhibition is [(X−Y)/X]×100, where X is the signal determined in the absence of the inhibitor and Y is the signal obtained in the presence of the inhibitor. The concentration at which 50% of efficacy of inhibition is observed (EC50) was determined by analysis of a concentration range of the tested compound in triplicates. The non-linear regression fittings with sigmoidal dose-response (variable slope) were performed with GraphPad Prism 4.03 (GraphPad Software).

[5] = concentration at which 50% of efficacy of inhibition is observed, read-out: EC50 (μM), hDNMT 3A inhibition
[6] = interval line below the EC50 of the same compound, read-out: EC50 (μM), range given

Question: What does the source list for `CCN(CC)CCCNC(=S)N1CCc2cc3c4cc2[C@@H]1Cc1ccc(OC)c(c1)Oc1ccc(cc1)C[C@H]1c2c(cc(OC)c(c2O4)O3)CCN1C` [Product 42]?
Answer: IC50 (KG-1 (leukemia)): 3.57 ± 0.04 µM; IC50 [1]: 0.5 ± 0.01 µM; EC50 [2]: 10.6 ± 2.8 µM; inhibition at 10 µM [2]: 38%; inhibition at 32 µM [2]: 100%; Induction Fold (IF) of luciferase gene reporter in KG-1 CMV-Luc ([3]; 0.1 μM): 1.2 ± 0.1; Induction Fold (IF) of luciferase gene reporter in KG-1 CMV-Luc ([3]; 0.32 μM): 1.3 ± 0.1; Induction Fold (IF) of luciferase gene reporter in KG-1 CMV-Luc ([3]; 1 μM): 1.5 ± 0.1; Induction Fold (IF) of luciferase gene reporter in KG-1 CMV-Luc ([3]; 3.2 μM): 2.0 ± 0.2; Induction Fold (IF) of luciferase gene reporter in KG-1 CMV-Luc ([3]; 5 μM): 2.3 ± 0.1; IF-24 h, KG1 CMV-Luc model [3]: 1.1 ± 0.6; EC50 [4, 5]: 0.64 µM; EC50 [4, 6]: 0.47 to 0.86 µM; inhibition at 10 µM [4]: 98%; inhibition at 32 µM [4]: 98%

Question: How did the EC50 [2] turn out when `CCN(CC)CCCNC(=O)N1CCc2cc3c4cc2[C@@H]1Cc1ccc(OC)c(c1)Oc1ccc(cc1)C[C@H]1c2c(cc(OC)c(c2O4)O3)CCN1C(=O)NCCCN(CC)CC` [Product 48] was run?
Answer: 14.6 ± 1.3 µM

Question: What about the inhibition at 10 µM [2] of the same compound?
Answer: 32%

Question: And the inhibition at 32 µM [2]?
Answer: 98%

Question: What about the “Induction Fold (IF) of luciferase gene reporter in KG-1 CMV-Luc” value (from here on “Induction Fold (IF)”) ([3]; 0.1 μM) of the same compound?
Answer: 1.1 ± 0.1

Question: And the “Induction Fold (IF)” value ([3]; 0.32 μM)?
Answer: 1.2 ± 0.3

Question: And the “Induction Fold (IF)” value ([3]; 1 μM)?
Answer: 1.2 ± 0.1

Question: And the “Induction Fold (IF)” value ([3]; 3.2 μM)?
Answer: 1.2 ± 0.1

Question: And the “Induction Fold (IF)” value ([3]; 5 μM)?
Answer: 1.3 ± 0.1

Question: And the “Induction Fold (IF)” value ([3]; 10 μM)?
Answer: 2.3 ± 1.3

Question: What about the “IF-24 h, KG1 CMV-Luc model” value [3] of the same compound?
Answer: 1.1

Question: What about the EC50 [4, 5] of the same compound?
Answer: 1.93 µM

Question: And the EC50 [4, 6]?
Answer: 1 to 3.72 µM

Question: What about the inhibition at 10 µM [4] of the same compound?
Answer: 82%

Question: And the inhibition at 32 µM [4]?
Answer: 98%
